Assay results as given in patent US8586566B2, “Unsaturated heterocyclic derivatives” (ARIAD Pharmaceuticals, Inc., priority 2005, dated 2013).

melting point [°C]	Structure (SMILES)
230 to 234	Cc1ccc(NC(=O)c2cccc(C(F)(F)F)c2)cc1/C=C/n1cnc2c(Nc3ccc(P(C)(C)=O)cc3)ncnc21 [Example 3, (E)-N-(3-(2-(6-(4-(Dimethylphosphoryl)phenylamino)-9H-purin-9-yl)vinyl)-4-methylphenyl)-3-(trifluoromethyl)benzamide]
160 to 162	Cc1ccc(NC(=O)Nc2cccc(C(F)(F)F)c2)cc1/C=C/n1cnc2c(NC3CC3)ncnc21 [Example 6, (E)-1-(3-(2-(6-(Cyclopropylamino)-9H-purin-9-yl)vinyl)-4-methylphenyl)-3-(3-(trifluoromethyl)phenyl)urea]
201	Cc1ccc(C(=O)Nc2cccc(C(F)(F)F)c2)cc1/C=C/n1cnc2c(NC3CC3)ncnc21 [Example 5, (E)-3-(2-(6-(Cyclopropylamino)-9H-purin-9-yl)vinyl)-4-methyl-N-(3-(trifluoromethyl)phenyl)benzamide]
